This is an account of results in ChEMBL document CHEMBL5729664, “Substituted pyridine derivatives as SARM1 inhibitors” (2023).

A short description of the assay: Biological Assay: Each reaction was run at a volume of 20 μL containing 50 μM compound (dissolved in DMSO; final concentration of DMSO is 1% v/v), 40 nM human SARM1 (50-724), 0.3 mM NMN, 20 μM NAD, 1 mM TCEP, 25 mM HEPES pH 7.4, 10 mM KCl and 10 mM MgCl2. The reaction was incubated at room temperature for 60 minutes and quenched with 20 μL of 0.4% formic acid. The samples were run on Agilent HPLC 1260 Infinity II with Synergi 2.5 μM Fusion-RP 100 Å (100×3.0 mm) LC column from Phenomenex. Total run time for each sample was 4 minutes. The run was isocratic with 1.5% methanol in 40 mM ammonium acetate pH 6.0. Samples were run at a flow rate of 0.8 ml/min at 55° C. Peak areas of NAD and NAM were determined using OpenLAB CDS (Chem Station edition) software. For dose-response, the compound was diluted serially 1:3 in DMSO and added to the reaction starting at a final compound concentration of 100 μM in 1% DMSO.
The IC50 is the point on the concentration scale where inhibition reaches its midpoint. As to `OC(C1N=CC(Cc2ccncc2F)=N1)C(F)(F)F` (stereo not drawn), the IC50 is less than 1 µM.

With `COC(c1ncc(Cc2ccncc2)[nH]1)C(F)(F)F` (stereo not drawn), the IC50 entry is “in the range around 5.5 µM”.

Consider `CNC(c1ncc(Cc2ccncc2)[nH]1)C(F)(F)F` (stereo not drawn), for which the 50% inhibitory concentration (IC50) result is “in the range around 5.5 µM”.

`CC(c1ccncc1)c1c[nH]c(CC(F)(F)F)n1` (stereo not drawn): the IC50 is less than 1 µM.

In the case of `C[C@@H](c1ccncc1)c1c[nH]c([C@@H](O)C(F)(F)F)n1`, the IC50 is less than 1 µM.

On to `CC(O)(c1nc(Cc2ccncc2)c[nH]1)C(F)(F)F` (stereo not drawn), for which the concentration for half-maximal inhibition (IC50) result is “in the range around 5.5 µM”.

Turning to `Cc1cnccc1Cc1c[nH]c([C@H](O)C(F)(F)F)n1`, the IC50 was less than 1 µM.

With `O[C@H](c1ncc(Cc2ccncc2)[nH]1)C(F)(F)F`, the IC50 is less than 1 µM.

`CC(c1ccncc1)c1ccc(CC(F)(F)F)[nH]1` (stereo not drawn): the IC50 result was “in the range around 5.5 µM”.

In the case of `OC(c1ccccn1)c1ncc(Cc2ccncc2)[nH]1` (stereo not drawn), the 50% inhibitory concentration (IC50) result was “in the range around 5.5 µM”.

As to `O[C@H](c1ncc(Cc2ccncc2)[nH]1)c1nccs1`, the IC50 entry is “in the range around 5.5 µM”.

Take `N[C@@H](c1nc(Cc2ccncc2)c[nH]1)C(F)(F)F`: the IC50 was less than 1 µM.

Consider `OC(c1nc(Cc2ccncc2Cl)c[nH]1)C(F)(F)F` (stereo not drawn), for which the IC50 is less than 1 µM.

As for `CN(C)C(c1ncc(Cc2ccncc2)[nH]1)C(F)(F)F` (stereo not drawn), the IC50 entry is “in the range around 55 µM”.

For the compound `OC(c1ncc(Cc2ccncc2)[nH]1)(c1cncs1)C(F)(F)F` (stereo not drawn), the half-inhibitory concentration (IC50) entry was “in the range around 55 µM”.

As for `CN[C@@H](c1ncc(Cc2ccncc2)[nH]1)C(F)(F)F`, the IC50 entry was “in the range around 5.5 µM”.

With `C[C@@H](c1ccncc1)c1c[nH]c([C@H](O)C(F)(F)F)n1`, the IC50 result is “in the range around 55 µM”.

As to `Cc1cnccc1Cc1cnc([C@@H](O)c2cncs2)[nH]1` (single isomer, unassigned), the IC50 result is “in the range around 55 µM”.

As for `O[C@H](C1N=CC(Cc2ccncc2F)=N1)C(F)(F)F` (stereo partly drawn), the IC50 entry was “in the range around 5.5 µM”.

For the compound `C[C@H](c1ccncc1)c1c[nH]c(CC(F)(F)F)n1`, the 50% inhibitory concentration (IC50) was less than 1 µM.

Consider `NC(c1nc(Cc2ccncc2)cs1)C(F)(F)F` (stereo not drawn), for which the IC50 result is “in the range around 55 µM”.

`O[C@@H](c1nc(Cc2ccncc2)c[nH]1)c1cncs1`: the IC50 was less than 1 µM.

Regarding `O[C@@H](c1ncc(Cc2ccncc2)[nH]1)C(F)(F)F`, the concentration for half-maximal inhibition (IC50) is less than 1 µM.
